{"source": "patent US20070243161A1", "about": "“Epigenetic modification of the loci for CAMTA1 and/or FOXP3 as a marker for cancer treatment” (priority 2006, published 2007)", "key": {"[1]": {"test_system": "foxp3 locus", "experiment": "Bisulphite sequencing of the foxp3 locus in CD25-CD4+ T cells cultured with TGF-β", "assay_type": "cell-based, BALB/c mice", "excerpt": "D4+ T cells were isolated from pooled spleen and LN single cell suspensions by using anti CD4-FITC plus anti FITC multisort microbeads and the AutoMACS magnetic separation system (Miltenyi Biotec). After release of beads according to the manufacturer's instructions, CD25+ cells were depleted by using anti CD25-APC plus anti APC microbeads. To avoid the expansion of pre-committed Foxp3+ Tregs, the inventors excluded the majority of residual Foxp3+ Tregs from the CD25−CD4+ T cell fraction by sorting for CD62L^high cells using anti CD62L microbeads. MACS-sorted CD62L^highCD25−CD4+ T cells were stimulated for 3 days using plate bound anti CD3 (6 μg/ml) and anti CD28 (4 μg/ml). For Th1 cultures 5 μg/ml anti-IL-4, 20 ng/ml IFN-γ and 5 ng/ml IL-12 was added to the medium. For TGF-β cultures 5 ng/ml TGF-β and 10 ng/ml IL-2 was used. After 3 days, cells were removed from the stimulus, transferred to non-coated plates and cultured for another 3 days. All cell culture was done with RPMI 1640 (Gibco) supplemented with 10% FCS (Sigma). On day 6, cultured cells were stained using anti CD25-APC and sorted for CD25+ cells by FACS (Aria). Foxp3 expression of sorted CD25+ cells was analyzed by intracellular staining. For restimulation experiments sorted CD25+ cells were stimulated for 3 days using plate bound anti CD3 (6 μg/ml) and anti CD28 (4 μg/ml) plus IL-2 (10 ng/ml). After 3 days, cells were removed from the stimulus, transferred to non-coated plates and cultured for another 3 days. On day 6, cultured cells were stained for CD25 and Foxp3 as described above.\nGenomic DNA was isolated from purified T cells using the DNeasy tissue kit (Qiagen) following the supplier's recommendations. Sodium bisulphite treatment of genomic DNA was performed according to Olek et al. (Olek, A., Oswald, J. and Walter, J. A modified and improved method for bisulphite based cytosine methylation analysis. Nucleic Acids Res 24, 5064-6 (1996)) with minor modifications, resulting in the deamination of unmethylated cytosines to uracil, whereas methylated cytosines remain unchanged. In a subsequent PCR amplification uracils were replicated as thymidines. Thus, detection of a “C” in sequencing reactions reflects methylation of the genomic DNA at that site. Detection of a “T” at the same site instead reflects the absence of a methyl modification of the genomic cytosine.\nPCRs were performed on MJ Research thermocyclers (Waltham) in a final volume of 25 μl containing 1×PCR Buffer, 1 U Taq DNA polymerase (Qiagen), 200 μM dNTPs, 12.5 pmol each of forward and reverse primers, and 7 ng of bisulphite-treated genomic DNA. The amplification conditions were 95° C. for 15 min and 40 cycles of 95° C. for 1 min, 55° C. for 45 sec and 72° C. for 1 min and a final extension step of 10 min at 72° C. PCR products were purified using ExoSAP-IT USB Corp.) and sequenced in both directions applying the PCR primers and the ABI Big Dye Terminator v1.1 cycle sequencing chemistry (Applied Biosystems) followed by capillary electrophoresis on an ABI 3100 genetic analyzer. Trace files were interpreted using ESME, which normalizes sequence traces, corrects for incomplete bisulphite conversion and allows for quantification of methylation signals (Lewin, J., Schmitt, A. O., Adorjan, P., Hildmann, T. and Piepenbrock, C. Quantitative DNA methylation analysis based on four-dye trace data from direct sequencing of PCR amplificates. Bioinformatics 20, 3005-12 (2004)). For each sample both PCR amplification and sequencing was repeated once. The following primers (5′ to 3′ direction) were used for both PCR amplification of bisulphite converted genomic DNA and sequence reactions: […]"}, "[2]": {"test_system": "Foxp3", "experiment": "Intracellular Foxp3 expression by FACS in TGF-β-cultured CD25-CD4+ T cells", "assay_type": "cell-based, BALB/c mice", "description": "Cytometric analysis was performed as previously described (Huehn, J. et al. Developmental stage, phenotype and migration distinguish naive- and effector/memory-like CD4+ regulatory T cells. J Exp Med 199, 303-313 (2004)) using a FACS Calibur or a LSRII (BD Biosciences) and the CellQuest™ software. Dead cells were excluded by PI (propidium iodide) or DAPI (diamidophenylindole) staining (Sigma). Intracellular Foxp3 staining was performed with the PE anti-mouse Foxp3 staining set according to the manufacturers instructions.\nD4+ T cells were isolated from pooled spleen and LN single cell suspensions by using anti CD4-FITC plus anti FITC multisort microbeads and the AutoMACS magnetic separation system (Miltenyi Biotec). After release of beads according to the manufacturer's instructions, CD25+ cells were depleted by using anti CD25-APC plus anti APC microbeads. To avoid the expansion of pre-committed Foxp3+ Tregs, the inventors excluded the majority of residual Foxp3+ Tregs from the CD25−CD4+ T cell fraction by sorting for CD62L^high cells using anti CD62L microbeads. MACS-sorted CD62L^highCD25−CD4+ T cells were stimulated for 3 days using plate bound anti CD3 (6 μg/ml) and anti CD28 (4 μg/ml). For Th1 cultures 5 μg/ml anti-IL-4, 20 ng/ml IFN-γ and 5 ng/ml IL-12 was added to the medium. […] Foxp3 expression of sorted CD25+ cells was analyzed by intracellular staining. […]"}, "[3]": {"conditions": "cell culture in the presence of TGF-β"}, "[4]": {"conditions": "sorted CD25+ cells, day 6 TGF-β culture, exp. 1"}, "[5]": {"conditions": "sorted CD25+ cells, day 6 TGF-β culture, exp. 2"}}, "data": [{"substance": "TGF-β: cytokine (R and D Systems) added at 5 ng/ml with IL-2 to induce Foxp3+ Tregs from CD25-CD4+ T cells", "values": [{"measurement": "methylation of CpG motifs in amplicons 3 and 4", "setting": "[1]; [3]", "value": "fully methylated"}, {"measurement": "methylation of CpG motifs within region covered by amplicons 1 and 2", "setting": "[1]; [3]", "value": "clearly visible demethylation"}, {"measurement": "degree of methylation, CpG motif amplicon 1 (158)", "setting": "[1]; [4]", "value": 100, "unit": "%"}, {"measurement": "degree of methylation, CpG motif amplicon 1 (180)", "setting": "[1]; [4]", "value": 92, "unit": "%"}, {"measurement": "degree of methylation, CpG motif amplicon 1 (308)", "setting": "[1]; [4]", "value": 63, "unit": "%"}, {"measurement": "degree of methylation, CpG motif amplicon 1 (344)", "setting": "[1]; [4]", "value": 41, "unit": "%"}, {"measurement": "degree of methylation, CpG motif amplicon 1 (360)", "setting": "[1]; [4]", "value": 60, "unit": "%"}, {"measurement": "degree of methylation, CpG motif amplicon 1 (394)", "setting": "[1]; [4]", "value": 28, "unit": "%"}, {"measurement": "degree of methylation, CpG motif amplicon 1 (421)", "setting": "[1]; [4]", "value": 42, "unit": "%"}, {"measurement": "degree of methylation, CpG motif amplicon 1 (426)", "setting": "[1]; [4]", "value": 48, "unit": "%"}, {"measurement": "degree of methylation, CpG motif amplicon 2 (205)", "setting": "[1]; [4]", "value": 74, "unit": "%"}, {"measurement": "degree of methylation, CpG motif amplicon 2 (224)", "setting": "[1]; [4]", "value": 72, "unit": "%"}, {"measurement": "degree of methylation, CpG motif amplicon 2 (228)", "setting": "[1]; [4]", "value": 100, "unit": "%"}, {"measurement": "degree of methylation, CpG motif amplicon 2 (236)", "setting": "[1]; [4]", "value": 75, "unit": "%"}, {"measurement": "degree of methylation, CpG motif amplicon 2 (298)", "setting": "[1]; [4]", "value": 64, "unit": "%"}, {"measurement": "degree of methylation, CpG motif amplicon 2 (368)", "setting": "[1]; [4]", "value": 39, "unit": "%"}, {"measurement": "degree of methylation, CpG motif amplicon 3 (93)", "setting": "[1]; [4]", "value": 100, "unit": "%"}, {"measurement": "degree of methylation, CpG motif amplicon 3 (170)", "setting": "[1]; [4]", "value": 100, "unit": "%"}, {"measurement": "degree of methylation, CpG motif amplicon 3 (173)", "setting": "[1]; [4]", "value": 100, "unit": "%"}, {"measurement": "degree of methylation, CpG motif amplicon 3 (176)", "setting": "[1]; [4]", "value": 100, "unit": "%"}, {"measurement": "degree of methylation, CpG motif amplicon 3 (281)", "setting": "[1]; [4]", "value": 100, "unit": "%"}, {"measurement": "degree of methylation, CpG motif amplicon 4 (69)", "setting": "[1]; [4]", "value": 100, "unit": "%"}, {"measurement": "degree of methylation, CpG motif amplicon 4 (311)", "setting": "[1]; [4]", "value": 100, "unit": "%"}, {"measurement": "degree of methylation, CpG motif amplicon 4 (315)", "setting": "[1]; [4]", "value": 100, "unit": "%"}, {"measurement": "degree of methylation, CpG motif amplicon 4 (319)", "setting": "[1]; [4]", "value": 100, "unit": "%"}, {"measurement": "degree of methylation, CpG motif amplicon 4 (338)", "setting": "[1]; [4]", "value": 90, "unit": "%"}, {"measurement": "degree of methylation, CpG motif amplicon 4 (371)", "setting": "[1]; [4]", "value": 100, "unit": "%"}, {"measurement": "degree of methylation, CpG motif amplicon 1 (158)", "setting": "[1]; [5]", "value": 100, "unit": "%"}, {"measurement": "degree of methylation, CpG motif amplicon 1 (180)", "setting": "[1]; [5]", "value": 93, "unit": "%"}, {"measurement": "degree of methylation, CpG motif amplicon 1 (308)", "setting": "[1]; [5]", "value": 75, "unit": "%"}, {"measurement": "degree of methylation, CpG motif amplicon 1 (344)", "setting": "[1]; [5]", "value": 41, "unit": "%"}, {"measurement": "degree of methylation, CpG motif amplicon 1 (360)", "setting": "[1]; [5]", "value": 70, "unit": "%"}, {"measurement": "degree of methylation, CpG motif amplicon 1 (394)", "setting": "[1]; [5]", "value": 38, "unit": "%"}, {"measurement": "degree of methylation, CpG motif amplicon 2 (205)", "setting": "[1]; [5]", "value": 67.5, "unit": "%"}, {"measurement": "degree of methylation, CpG motif amplicon 2 (224)", "setting": "[1]; [5]", "value": 75, "unit": "%"}, {"measurement": "degree of methylation, CpG motif amplicon 2 (228)", "setting": "[1]; [5]", "value": 90, "unit": "%"}, {"measurement": "degree of methylation, CpG motif amplicon 2 (236)", "setting": "[1]; [5]", "value": 66, "unit": "%"}, {"measurement": "degree of methylation, CpG motif amplicon 2 (298)", "setting": "[1]; [5]", "value": 43, "unit": "%"}, {"measurement": "degree of methylation, CpG motif amplicon 2 (368)", "setting": "[1]; [5]", "value": 50, "unit": "%"}, {"measurement": "degree of methylation, CpG motif amplicon 3 (170)", "setting": "[1]; [5]", "value": 100, "unit": "%"}, {"measurement": "degree of methylation, CpG motif amplicon 3 (173)", "setting": "[1]; [5]", "value": 100, "unit": "%"}, {"measurement": "degree of methylation, CpG motif amplicon 3 (176)", "setting": "[1]; [5]", "value": 100, "unit": "%"}, {"measurement": "degree of methylation, CpG motif amplicon 3 (281)", "setting": "[1]; [5]", "value": 96, "unit": "%"}, {"measurement": "degree of methylation, CpG motif amplicon 4 (69)", "setting": "[1]; [5]", "value": 100, "unit": "%"}, {"measurement": "degree of methylation, CpG motif amplicon 4 (311)", "setting": "[1]; [5]", "value": 100, "unit": "%"}, {"measurement": "degree of methylation, CpG motif amplicon 4 (315)", "setting": "[1]; [5]", "value": 100, "unit": "%"}, {"measurement": "degree of methylation, CpG motif amplicon 4 (319)", "setting": "[1]; [5]", "value": 100, "unit": "%"}, {"measurement": "degree of methylation, CpG motif amplicon 4 (338)", "setting": "[1]; [5]", "value": 100, "unit": "%"}, {"measurement": "degree of methylation, CpG motif amplicon 4 (371)", "setting": "[1]; [5]", "value": 100, "unit": "%"}, {"measurement": "Foxp3+ cells among TGF-β-cultured cells", "setting": "[2]; CD25-CD4+ T cells activated and cultured 6 days with TGF-β, day 6", "value": "> 98", "unit": "%"}, {"measurement": "Foxp3 expression after restimulation", "setting": "[2]; TGF-β-induced Tregs restimulated 6 days in the absence of TGF-β", "value": "lost Foxp3 expression"}]}]}
